According to US20090068290A1, “BIFEPRUNOX DOSES FOR TREATING SCHIZOPHRENIA” (priority 2006, published 2009):

Tested on: adult subjects with schizophrenia
Test: CGI Severity of Illness score, Clinical Study One
Format: in vivo, human
Settings: Risperidone 6 mg, ITT population
Description: There were five treatment groups in this study. […] Study medication was administered once daily. After Baseline measurements were performed, the titration phase was begun. Bifeprunox treated subjects were titrated up to 5 mg, 10 mg or 20 mg according to a standardized titration schedule (Day 1: 0.125 mg, Day 2: 0.25 mg, Day 3: 0.5 mg, Day 4: 1.0 mg, Day 5: 2.0 mg, Day 6: 5.0 mg, Day 7: 10.0 mg, Day 8: 20 mg). When the assigned dose was reached, subjects were maintained at that dose for the remainder of the six-week treatment period.
The change in the Positive and Negative Symptom Scale (PANSS) total score, from baseline to endpoint, was the primary outcome measure. Secondary efficacy measures included: PANSS positive, PANSS negative, PANSS general psychopathology (GPP) score, PANSS-derived Brief Psychiatric Rating Scale (BPRS) score, Clinical Global Impressions-Severity of Illness (CGI-S), CGI-Improvement (CGI-I) scores, and responder rates. Safety and tolerability evaluations included extrapyramidal symptoms (EPS), weight gain, lipid profile, and serum prolactin.

In the case of `Cc1nc2n(c(=O)c1CCN1CCC(c3noc4cc(F)ccc34)CC1)CCCC2` [Risperidone, risperidone, reference compound], the “Change from Baseline in CGI Severity of Illness Score, Mean (S.D.)” value (“Change from Baseline in CGI Severity … (S.D.)” for short) (Endpoint LOCF) is reported as −0.76 (0.93), the “Change from Baseline in CGI Severity of Illness Score, Median” value (“Change from Baseline … Median” below) (Endpoint LOCF) is reported as 0.0 and the “Change from Baseline in CGI Severity … (S.D.)” value (Week 1, LOCF) is reported as −0.37 (0.68). For the same compound, the “Change from Baseline … Median” value (Week 1, LOCF) was 0.0, the “Change from Baseline in CGI Severity … (S.D.)” value (Week 2, LOCF) was −0.60 (0.83) and the “Change from Baseline … Median” value (Week 2, LOCF) was 0.0. The “Change from Baseline in CGI Severity … (S.D.)” value (Week 3, LOCF) was −0.70 (0.81), the “Change from Baseline … Median” value (Week 3, LOCF) was 0.0 and the “Change from Baseline in CGI Severity … (S.D.)” value (Week 4, LOCF) was −0.69 (0.85). The “Change from Baseline … Median” value (Week 4, LOCF) was 0.0.
